Laboratory results taken from ChEMBL document CHEMBL1132463, “Metabolism-based brain-targeting system for a thyrotropin-releasing hormone analogue” (1999).
Square brackets hold non-standard residues; d marks the D form. Peptide text beside a SMILES is read from it. * marks the point of attachment. Nicotinoyl(1-Me-1,4-dihydro) = CN1C=CCC(C(=O)*)=C1; X1 = CC(C)CCC(C)C1CCC2C3CC=C4CC(O*)CCC4(C)C3CCC12C; pGlu = O=C1CC[C@@H](C(=O)O)N1

tested on: Mus musculus; assay: Barbiturate-induced sleeping time in mice after the administration of the compound; format: functional

In order of rising Sleeping time:
1. CC(C)CCC(C)C1CCC2C3CC=C4CC(OC(=O)CNC(=O)[C@@H]5CCCN5C(=O)[C@H](CC(C)C)NC(=O)[C@H](CCC(N)=O)NC(=O)[C@H](C)NC(=O)[C@@H]5CCCN5C(=O)C5=CN(C)C=CC5)CCC4(C)C3CCC12C (some centres not stated) ({Nicotinoyl(1-Me-1,4-dihydro)}-PAQLPG-X1)  24.3 min
2. CC(C)CCC(C)C1CCC2C3CC=C4CC(OC(=O)CNC(=O)[C@@H]5CCCN5C(=O)[C@H](CC(C)C)NC(=O)[C@H](CCC(N)=O)NC(=O)[C@@H]5CCCN5C(=O)[C@@H]5CCCN5C(=O)C5=CN(C)C=CC5)CCC4(C)C3CCC12C (some centres not stated) ({Nicotinoyl(1-Me-1,4-dihydro)}-PPQLPG-X1)  26.8 min
3. CC(C)CCC(C)C1CCC2C3CC=C4CC(OC(=O)CNC(=O)[C@@H]5CCCN5C(=O)[C@H](CC(C)C)NC(=O)[C@H](CCC(N)=O)NC(=O)[C@@H]5CCCN5C(=O)C5=CN(C)C=CC5)CCC4(C)C3CCC12C (some centres not stated) ({Nicotinoyl(1-Me-1,4-dihydro)}-PQLPG-X1)  29.2 min
4. CC(C)CCC(C)C1CCC2C3CC=C4CC(OC(=O)CNC(=O)[C@@H]5CCCN5C(=O)[C@H](CC(C)C)NC(=O)[C@H](CCC(N)=O)NC(=O)[C@@H]5CCCN5C(=O)[C@H](C)NC(=O)C5=CN(C)C=CC5)CCC4(C)C3CCC12C (some centres not stated) ({Nicotinoyl(1-Me-1,4-dihydro)}-APQLPG-X1)  35 min
5. CC(C)CCC(C)C1CCC2C3CC=C4CC(OC(=O)CNC(=O)[C@@H]5CCCN5C(=O)[C@H](CC(C)C)NC(=O)[C@H](CCC(N)=O)NC(=O)[C@H](C)NC(=O)[C@H](C)NC(=O)C5=CN(C)C=CC5)CCC4(C)C3CCC12C (some centres not stated) ({Nicotinoyl(1-Me-1,4-dihydro)}-AAQLPG-X1)  37 min
6. CC(C)CCC(C)C1CCC2C3CC=C4CC(OC(=O)CNC(=O)[C@@H]5CCCN5C(=O)[C@H](CC(C)C)NC(=O)[C@H](CCC(N)=O)NC(=O)[C@H](C)NC(=O)C5=CN(C)C=CC5)CCC4(C)C3CCC12C (some centres not stated) ({Nicotinoyl(1-Me-1,4-dihydro)}-AQLPG-X1)  38 min
7. CC(C)C[C@H](NC(=O)[C@@H]1CCC(=O)N1)C(=O)N1CCC[C@H]1C(N)=O ([pGlu]-Leu-Pro-NH2)  45.5 min
